Source: ChEMBL document CHEMBL1201862, “PubChem BioAssay data set” (2004)
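Cultured in 96-well plates, cells were exposed to test compound for 48 hours across five concentrations. GI50 = concentration required for 50% inhibition of growth.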 Activity calls are given as the source filed them. Cut-off read from the data, not from the text of the source: active = GI50 up to about 1.1 µM and inactive = higher.

Legend:
Experiment in all cases: growth of human tumour cells (NCI), 48 h
UACC-62 = test system: UACC-62
SK-MEL-5 = test system: SK-MEL-5
K562 = test system: K562
M14 = test system: M14
Malme-3M = test system: Malme-3M
SF-295 = test system: SF-295
NCI-H522 = test system: NCI-H522
XF498 = test system: XF498
SF-539 = test system: SF-539
SN12C = test system: SN12C
SNB-75 = test system: SNB-75
COLO 205 = test system: COLO 205
MOLT-4 = test system: MOLT-4
SR = test system: SR
U-251 = test system: U-251
SK-MEL-2 = test system: SK-MEL-2
OVCAR-3 = test system: OVCAR-3
HCC 2998 = test system: HCC 2998
UO-31 = test system: UO-31
786-0 = test system: 786-0
SF-268 = test system: SF-268
OVCAR-8 = test system: OVCAR-8
A549 = test system: A549
RXF 393 = test system: RXF 393
HCT-15 = test system: HCT-15
HCT-116 = test system: HCT-116
SW-620 = test system: SW-620
IGROV-1 = test system: IGROV-1
HOP-62 = test system: HOP-62
LOX IMVI = test system: LOX IMVI
SK-MEL-28 = test system: SK-MEL-28
KM-20L2 = test system: KM-20L2
DMS-273 = test system: DMS-273
KM12 = test system: KM12
UACC-257 = test system: UACC-257
CAKI-1 = test system: CAKI-1
EKVX = test system: EKVX
DMS-114 = test system: DMS-114
HOP-18 = test system: HOP-18
TK-10 = test system: TK-10
NCI-H226 = test system: NCI-H226
SNB-19 = test system: SNB-19
ACHN = test system: ACHN
RPMI-8226 = test system: RPMI-8226
M19-MEL = test system: M19-MEL
NCI-H23 = test system: NCI-H23
LXFL 529 = test system: LXFL 529
OVCAR-4 = test system: OVCAR-4
DLD-1 = test system: DLD-1
OVCAR-5 = test system: OVCAR-5
A498 = test system: A498
NCI-H460 = test system: NCI-H460
CCRF-CEM = test system: CCRF-CEM
HT-29 = test system: HT-29
SNB-78 = test system: SNB-78
HOP-92 = test system: HOP-92
SK-OV-3 = test system: SK-OV-3
HL-60 = test system: HL-60

In the case of O=C(c1ccccc1)c1nc2ccc(Cl)cc2c2c1Cc1ccccc1-2, the GI50 (UACC-62) is reported as > 100 µM (inactive), the GI50 (SK-MEL-5) is reported as > 100 µM (inactive) and the GI50 (K562) is reported as > 100 µM (inactive). For the same compound, the GI50 (M14) was > 100 µM (inactive), the GI50 (Malme-3M) was > 100 µM (inactive) and the GI50 (SF-295) was > 100 µM (inactive). The GI50 (NCI-H522) was > 100 µM (inactive), the GI50 (XF498) was > 100 µM (inactive) and the GI50 (SF-539) was > 100 µM (inactive). The GI50 (SN12C) was > 100 µM (inactive), the GI50 (SNB-75) was 46.5 µM (inactive) and the GI50 (COLO 205) was > 100 µM (inactive). The GI50 (MOLT-4) was > 100 µM (inactive), the GI50 (SR) was > 100 µM (inactive) and the GI50 (U-251) was > 100 µM (inactive). For the same compound, the GI50 (SK-MEL-2) was > 100 µM (inactive), the GI50 (OVCAR-3) was > 100 µM (inactive) and the GI50 (HCC 2998) was > 100 µM (inactive). The GI50 (UO-31) was > 100 µM (inactive), the GI50 (786-0) was > 100 µM (inactive) and the GI50 (SF-268) was > 100 µM (inactive). For the same compound, the GI50 (OVCAR-8) was > 100 µM (inactive), the GI50 (A549) was > 100 µM (inactive) and the GI50 (RXF 393) was > 100 µM (inactive). For the same compound, the GI50 (HCT-15) was over 100 µM, the GI50 (HCT-116) was > 100 µM (inactive) and the GI50 (SW-620) was > 100 µM (inactive). The GI50 (IGROV-1) was > 100 µM (inactive), the GI50 (HOP-62) was > 100 µM (inactive) and the GI50 (LOX IMVI) was > 100 µM (inactive). For the same compound, the GI50 (SK-MEL-28) was > 100 µM (inactive), the GI50 (KM-20L2) was > 100 µM (inactive) and the GI50 (DMS-273) was > 100 µM (inactive). For the same compound, the GI50 (KM12) was > 100 µM (inactive), the GI50 (UACC-257) was > 100 µM (inactive) and the GI50 (CAKI-1) was > 100 µM (inactive). For the same compound, the GI50 (EKVX) was > 100 µM (inactive), the GI50 (DMS-114) was > 100 µM (inactive) and the GI50 (HOP-18) was > 100 µM (inactive). For the same compound, the GI50 (TK-10) was > 100 µM (inactive), the GI50 (NCI-H226) was > 100 µM (inactive) and the GI50 (SNB-19) was > 100 µM (inactive). The GI50 (ACHN) was > 100 µM (inactive), the GI50 (RPMI-8226) was > 100 µM (inactive) and the GI50 (M19-MEL) was > 100 µM (inactive). For the same compound, the GI50 (NCI-H23) was > 100 µM (inactive), the GI50 (LXFL 529) was > 100 µM (inactive) and the GI50 (OVCAR-4) was > 100 µM (inactive). For the same compound, the GI50 (DLD-1) was > 100 µM (inactive) and the GI50 (OVCAR-5) was > 100 µM (inactive).

For COC(=O)C(=C/c1ccc(OC)cc1)/C(C(=O)O)=C(/C)c1ccccc1, the GI50 (UACC-62) was > 100 µM (inactive), the GI50 (A498) was > 100 µM (inactive) and the GI50 (NCI-H460) was > 100 µM (inactive). The GI50 (CCRF-CEM) was > 100 µM (inactive), the GI50 (SK-MEL-5) was > 100 µM (inactive) and the GI50 (K562) was > 100 µM (inactive). The GI50 (M14) was > 100 µM (inactive), the GI50 (Malme-3M) was > 100 µM (inactive) and the GI50 (SF-295) was > 100 µM (inactive). For the same compound, the GI50 (NCI-H522) was > 100 µM (inactive), the GI50 (XF498) was > 100 µM (inactive) and the GI50 (SF-539) was > 100 µM (inactive). For the same compound, the GI50 (SN12C) was > 100 µM (inactive), the GI50 (SNB-75) was > 100 µM (inactive) and the GI50 (COLO 205) was > 100 µM (inactive). For the same compound, the GI50 (HT-29) was > 100 µM (inactive), the GI50 (MOLT-4) was > 100 µM (inactive) and the GI50 (SR) was > 100 µM (inactive). The GI50 (U-251) was > 100 µM (inactive), the GI50 (SK-MEL-2) was > 100 µM (inactive) and the GI50 (SNB-78) was > 100 µM (inactive). For the same compound, the GI50 (OVCAR-3) was > 100 µM (inactive), the GI50 (HCC 2998) was > 100 µM (inactive) and the GI50 (UO-31) was > 100 µM (inactive). The GI50 (HOP-92) was > 100 µM (inactive), the GI50 (786-0) was > 100 µM (inactive) and the GI50 (OVCAR-8) was > 100 µM (inactive). The GI50 (A549) was > 100 µM (inactive), the GI50 (RXF 393) was > 100 µM (inactive) and the GI50 (HCT-15) was over 100 µM. For the same compound, the GI50 (HCT-116) was > 100 µM (inactive), the GI50 (SW-620) was > 100 µM (inactive) and the GI50 (IGROV-1) was > 100 µM (inactive). For the same compound, the GI50 (HOP-62) was > 100 µM (inactive), the GI50 (LOX IMVI) was > 100 µM (inactive) and the GI50 (KM-20L2) was > 100 µM (inactive). The GI50 (DMS-273) was > 100 µM (inactive), the GI50 (KM12) was > 100 µM (inactive) and the GI50 (UACC-257) was > 100 µM (inactive). The GI50 (CAKI-1) was > 100 µM (inactive), the GI50 (EKVX) was > 100 µM (inactive) and the GI50 (HOP-18) was > 100 µM (inactive). For the same compound, the GI50 (TK-10) was > 100 µM (inactive), the GI50 (NCI-H226) was > 100 µM (inactive) and the GI50 (SK-OV-3) was > 100 µM (inactive). For the same compound, the GI50 (SNB-19) was > 100 µM (inactive), the GI50 (HL-60) was > 100 µM (inactive) and the GI50 (ACHN) was > 100 µM (inactive). For the same compound, the GI50 (RPMI-8226) was > 100 µM (inactive), the GI50 (M19-MEL) was > 100 µM (inactive) and the GI50 (NCI-H23) was > 100 µM (inactive). The GI50 (LXFL 529) was > 100 µM (inactive), the GI50 (OVCAR-4) was > 100 µM (inactive) and the GI50 (DLD-1) was > 100 µM (inactive). For the same compound, the GI50 (OVCAR-5) was > 100 µM (inactive).
